Patent publication US20120065187A1 (ALCON RESEARCH, LTD, priority 2008, published 2012)
Where a name gives a salt, the structure may show the parent alone.

Assays:
[1] = target: T1, human H1 (Homo sapiens, UniProt P35367); assay: In vitro histamine receptor cell-based assay (aequorin bioluminescence), H1 antagonism; conditions: CHO-K1 cells expressing human H1 and aequorin; histamine at EC80; read-out: H1 Antagonist EC50
T1 construct: host or cells: CHO-K1
Method: (§1) The cell-based assays utilize an aequorin dependent bioluminescence signal. Doubly-transfected, stable CHO-K1 cell lines expressing human H1 or H4, mitochondrion-targeted aequorin, and (H4 only) human G protein Gα16 are obtained from Perkin-Elmer. Cells are maintained in F12 (Ham's) growth medium, containing 10% (vol./vol.) fetal bovine serum, penicillin (100 IU/mL), streptomycin (0.1 mg/mL), zeocin (0.25 mg/mL) and geneticin (0.40 mg/mL). Cell media components are from Invitrogen, Inc. One day prior to assay, the growth medium is replaced with the same, excluding zeocin and geneticin.
(§2) For assay preparation, growth medium is aspirated, and cells are rinsed with calcium-free, magnesium-free phosphate-buffered saline, followed by two to three minute incubation in Versene (Invitrogen, Inc.) at 37° C. Assay medium (DMEM:F12 [50:50], phenol-red free, containing 1 mg/mL protease-free bovine serum albumin) is added to collect the released cells, which are then centrifuged. The cell pellet is re-suspended in assay medium, centrifuged once more, and re-suspended in assay medium to a final density of 5×10^6 cells/mL. Coelenterazine-h dye (500 μM in ethanol) is added to a final concentration of 5 μM, and mixed immediately. The conical tube containing the cells is then wrapped with foil to protect the light-sensitive dye. The cells are incubated for four hours further at room temperature (approximately 21° C.) with end-over-end rotation to keep them in suspension.
(§3) Just before assay, the dye-loaded cells are diluted to 0.75×10^6 cells/mL (H1 receptor) or 1.5×10^6 cells/mL (H4 receptor) with additional assay medium. Cells are dispensed to 1536 well micro-titer plates at 3 μL/well. To assay receptor antagonism, 60 nl of 100× concentration test compounds in 100% dimethyl sulfoxide (DMSO) are dispensed to the wells, one compound per well, by passive pin transfer, and the plates are incubated for 15 minutes at room temperature. Assay plates are then transferred to a Lumilux bioluminescence plate reader (Perkin-Elmer) equipped with an automated 1536 disposable tip pipette. The pipette dispenses 3 μL/well of agonist (histamine, at twice the final concentration, where final concentration is a previously determined EC80) in assay medium, with concurrent bioluminescence detection. Agonist activity of test compounds is excluded by separate assays that measure response to test compounds immediately, without added histamine agonist.
(§4) CCD image capture on the Lumilux includes a 5 second baseline read prior to agonist addition, and generally a 40 second read per plate after agonist addition. A decrease in bioluminescence signal (measured either as area-under-the-curve, or maximum signal amplitude minus minimum signal amplitude) correlates with receptor antagonism in a dose dependent manner. The negative control is DMSO lacking any test compound. For antagonist assays, the positive controls are diphenhydramine (2-Diphenylmethoxy-N,N-dimethylethylamine, 10 μM final concentration, H1 receptor) or JNJ7777120 (1-[(5-Chloro-1H-indol-2-yl)carbonyl]-4-methyl-piperazine, 10 μM final concentration, H4 receptor). Efficacy is measured as a percentage of positive control activity.

[2] = target: T2, human H4 (Homo sapiens, UniProt Q9H3N8); assay: In vitro histamine receptor cell-based assay (aequorin bioluminescence), H4 antagonism; conditions: CHO-K1 cells expressing human H4, aequorin and Gα16; histamine at EC80; read-out: H4 Antagonist EC50
T2 construct: host or cells: CHO-K1
T2 sequence (Q9H3N8 whole entry): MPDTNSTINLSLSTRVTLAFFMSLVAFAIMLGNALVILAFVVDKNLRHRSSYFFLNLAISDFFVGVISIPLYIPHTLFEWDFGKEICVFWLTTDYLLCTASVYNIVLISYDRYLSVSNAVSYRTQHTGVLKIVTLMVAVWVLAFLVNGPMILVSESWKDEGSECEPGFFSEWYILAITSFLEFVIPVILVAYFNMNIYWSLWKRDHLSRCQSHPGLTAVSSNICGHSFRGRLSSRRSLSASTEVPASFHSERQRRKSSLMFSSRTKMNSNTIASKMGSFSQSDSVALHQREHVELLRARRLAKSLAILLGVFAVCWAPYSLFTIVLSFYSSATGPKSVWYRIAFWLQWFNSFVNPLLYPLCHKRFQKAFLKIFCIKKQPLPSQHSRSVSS
Method: as §1, §2
as §3, with “Assay plates are then transferred to a Lumilux bioluminescence plate reader (Perkin-Elmer) equipped with an automated 1536 disposable tip pipette.” left out
as §4

T1 sequence (P35367 whole entry): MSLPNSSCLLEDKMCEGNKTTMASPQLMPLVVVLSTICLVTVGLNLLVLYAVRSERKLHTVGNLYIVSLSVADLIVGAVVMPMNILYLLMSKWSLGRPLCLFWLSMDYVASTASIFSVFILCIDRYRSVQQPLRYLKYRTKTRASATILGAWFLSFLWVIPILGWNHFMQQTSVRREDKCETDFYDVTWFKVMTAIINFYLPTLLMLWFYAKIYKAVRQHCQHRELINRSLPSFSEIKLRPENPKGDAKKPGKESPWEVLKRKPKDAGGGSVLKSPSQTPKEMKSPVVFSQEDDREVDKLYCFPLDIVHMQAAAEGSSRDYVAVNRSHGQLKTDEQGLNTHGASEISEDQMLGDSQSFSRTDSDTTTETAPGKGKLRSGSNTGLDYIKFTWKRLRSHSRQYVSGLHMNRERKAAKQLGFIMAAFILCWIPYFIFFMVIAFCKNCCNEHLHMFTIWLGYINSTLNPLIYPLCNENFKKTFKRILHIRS

SMILES	EC50 [1]	EC50 [2]
Cc1nc2c3cc(F)c(C(F)(F)F)cc3nc(N3CCNCC3)n2n1 [Example 130, 9-fluoro-2-methyl-5-(piperazin-1-yl)-8-(trifluoromethyl)-[1,2,4]triazolo[1,5-c]quinazoline hydrochloride]	> 10 µM	< 10 µM
Fc1c(C(F)(F)F)ccc2nc(N3CCNCC3)c3nnnn3c12 [Example 172, 9-fluoro-4-(piperazin-1-yl)-8-(trifluoromethyl)tetrazolo[1,5-a]quinoxaline]	> 10 µM	< 10 µM
Clc1ccc2nc(N3CCNCC3)n3nnnc3c2c1 [Example 12, 9-Chloro-5-(piperazin-1-yl)tetrazolo[1,5-c]quinazoline]	> 10 µM	< 10 µM
Clc1ccc2c(c1)N1CCN=C1C(N1CCNCC1)=N2 [Example 6, 8-Chloro-4-(piperazin-1-yl)-1,2-dihydroimidazo[1,2-a]quinoxaline]	> 10 µM	< 10 µM
Clc1ccc2c(c1)nc(N1CCNCC1)c1nnnn12 [Example 16, 7-Chloro-4-(piperazin-1-yl)tetrazolo[1,5-a]quinoxaline]	> 10 µM	< 10 µM
Brc1ccc2c(c1)nc(N1CCNCC1)c1nncn12 [Example 53, 7-bromo-4-(piperazin-1-yl)-[1,2,4]triazolo[4,3-a]quinoxaline]	> 10 µM	> 10 µM
FC(F)(F)Oc1ccc2nc(N3CCNCC3)c3nncn3c2c1 [Example 51, 4-(piperazin-1-yl)-8-(trifluoromethoxy)-[1,2,4]triazolo[4,3-a]quinoxaline]	> 10 µM	< 10 µM
CN1CC[C@H](COc2nc3ccc(Cl)cc3n3cnnc23)C1 [Example 76, (S)-8-chloro-4-((1-methylpyrrolidin-3-yl)methoxy)-[1,2,4]triazolo[4,3-a]quinoxaline]	> 10 µM	> 10 µM
CC(C)Nc1ccc2nc(N3CCN(C)CC3)c3nncn3c2c1 [Example 176, N-isopropyl-4-(4-methylpiperazin-1-yl)-[1,2,4]triazolo[4,3-a]quinoxalin-8-amine]	> 10 µM	> 10 µM
Cc1ccc2nc(N3CCNCC3)c3nnnn3c2c1 [Example 18, 8-Methyl-4-(piperazin-1-yl)tetrazolo[1,5-a]quinoxaline]	> 10 µM	< 10 µM
NC1CCN(c2nc3ccc(Cl)cc3n3cnnc23)C1 (stereo not shown) [Example 59, 1-(8-chloro-[1,2,4]triazolo[4,3-a]quinoxalin-4-yl)pyrrolidin-3-amine]	> 10 µM	< 10 µM
C=Cc1ccc2nc(N3CCN(C)CC3)n3nc(C)nc3c2c1 [Example 137, 2-methyl-5-(4-methylpiperazin-1-yl)-9-vinyl-[1,2,4]triazolo[1,5-c]quinazoline]	> 10 µM	< 10 µM
CN1CCN(c2nc3cc(C(F)(F)F)c(F)cc3n3nnnc23)CC1 [Example 201, 8-fluoro-4-(4-methylpiperazin-1-yl)-7-(trifluoromethyl)tetrazolo[1,5-a]quinoxaline]	> 10 µM	< 10 µM
Cc1nc2c3cc(Cl)c(C(F)(F)F)cc3nc(N3CCN(C)CC3)n2n1 [Example 131, 9-chloro-2-methyl-5-(4-methylpiperazin-1-yl)-8-(trifluoromethyl)-[1,2,4]triazolo[1,5-c]quinazoline hydrochloride]	> 10 µM	< 10 µM
CN1CCN(c2nc3ccc(OC(F)(F)F)cc3n3cnnc23)CC1 [Example 50, 4-(4-methylpiperazin-1-yl)-8-(trifluoromethoxy)-[1,2,4]triazolo[4,3-a]quinoxaline]	> 10 µM	< 10 µM
Fc1c(C(F)(F)F)ccc2nc(N3CCNCC3)c3nncn3c12 [Example 169, 9-fluoro-4-(piperazin-1-yl)-8-(trifluoromethyl)-[1,2,4]triazolo[4,3-a]quinoxaline]	> 10 µM	< 10 µM

SMILES	EC50 [1]	EC50 [2]
Fc1cc2nc(N3CCNCC3)c3nccn3c2cc1F [Example 182, 7,8-difluoro-4-(piperazin-1-yl)imidazo[1,2-a]quinoxaline]	< 10 µM	< 10 µM
Fc1cc2nc(N3CCNCC3)c3nnnn3c2cc1C(F)(F)F [Example 186, 7-fluoro-4-(piperazin-1-yl)-8-(trifluoromethyl)tetrazolo[1,5-a]quinoxaline]	> 10 µM	< 10 µM
CN1CCN(c2nc3cc(Br)ccc3n3cnnc23)CC1 [Example 193, 7-bromo-4-(4-methylpiperazin-1-yl)-[1,2,4]triazolo[4,3-a]quinoxaline]	> 10 µM	< 10 µM
Cc1cn2c(n1)c(N1CCN(C)CC1)nc1ccc(Cl)cc12 [Example 9, 8-Chloro-2-methyl-4-(4-methylpiperazin-1-yl)imidazo[1,2-a]quinoxaline]	> 10 µM	< 10 µM
CNCCOc1nc2ccc(Cl)cc2n2cnnc12 [Example 80, 2-(8-chloro-[1,2,4]triazolo[4,3-a]quinoxalin-4-yloxy)-N-methylethanamine]	> 10 µM	> 10 µM
Clc1ccc2nc(N3CC4CCCNC4C3)c3nncn3c2c1 (stereo not shown) [Example 61, 8-chloro-4-(tetrahydro-1H-pyrrolo[3,4-b]pyridin-6(2H,7H,7aH)-yl)-[1,2,4]triazolo[4,3-a]quinoxaline]	> 10 µM	< 10 µM
CCc1ccc2nc(N3CCN(C)CC3)n3nc(C)nc3c2c1 [Example 139, 9-ethyl-2-methyl-5-(4-methylpiperazin-1-yl)-[1,2,4]triazolo[1,5-c]quinazoline]	> 10 µM	< 10 µM
FC(F)(F)c1ccc2nc(N3CCNCC3)c3nocc3c2c1 [Example 219, 4-piperazinyl-8-(trifluoromethyl)isoxazolo[3,4-c]quinoline]	> 10 µM	–
CN1CCN(c2nc3ccc(C(F)(F)F)c(F)c3n3cnnc23)CC1 [Example 236, 9-fluoro-4-(4-methylpiperazin-1-yl)-8-(trifluoromethyl)-[1,2,4]triazolo[4,3-a]quinoxaline]	> 10 µM	< 10 µM
Clc1ccc2nc(N3CC4CNCC4C3)c3nncn3c2c1 (stereo not shown) [Example 69, 8-chloro-4-(hexahydropyrrolo[3,4-c]pyrrol-2(1H)-yl)-[1,2,4]triazolo[4,3-a]quinoxaline]	> 10 µM	> 10 µM
CN1CCN(c2nc3cc(C(F)(F)F)c(Cl)cc3n3cnnc23)CC1 [Example 46, 8-Chloro-4-(4-methylpiperazin-1-yl)-7-(trifluoromethyl)-[1,2,4]triazolo[4,3-a]quinoxaline]	> 10 µM	< 10 µM
Cn1cc2c(n1)c(N1CCNCC1)nc1ccc(Cl)cc12 [Example 151, 8-Chloro-2-methyl-4-(piperazin-1-yl)-2H-pyrazolo[3,4-c]quinoline]	< 10 µM	< 10 µM
Clc1ccc2nc(NCCN3CCOCC3)c3nncn3c2c1 [Example 71, 8-chloro-N-(2-morpholinoethyl)-[1,2,4]triazolo[4,3-a]quinoxalin-4-amine]	> 10 µM	> 10 µM
Fc1cc2nc(N3CCNCC3)c3nnnn3c2cc1Cl [Example 188, 8-chloro-7-fluoro-4-(piperazin-1-yl)tetrazolo[1,5-a]quinoxaline]	> 10 µM	< 10 µM
CN1CCN(c2nc3ccc(Br)cc3c3c[nH]nc23)CC1 [Example 232, 8-bromo-4-(4-methylpiperazin-1-yl)-2H-pyrazolo[3,4-c]quinoline]	–	< 10 µM
Brc1ccc2c(c1)nc(N1CCNCC1)c1nocc12 [Example 229, 7-bromo-4-(piperazin-1-yl)isoxazolo[3,4-c]quinoline]	–	> 10 µM
